This note sets out measurements from ChEMBL document CHEMBL1146426, “Isolation and characterization of new anti-HIV and cytotoxic leads from plants, marine, and microbial organisms” (J Nat Prod, 1997).

The structures appear in SMILES notation. In brackets after ≈: the same amount, converted by molar mass.

As a reminder, the EC50 is the midpoint of the concentration-response curve. As a reminder, the IC50 is the concentration needed to halve the response being measured. Lower therefore signals greater potency in that assay.

In assay [1] the test system is Human immunodeficiency virus 1. As to the kind of experiment: Antiviral activity against HIV1 infected in human CEM-SS cells assessed as inhibition of virus-induced cytopathic effect after 6 days by XTT-based assay. In kind it is functional, organism-based. The following applies: Human immunodeficiency virus 1, CEM-SS, 144 h. Background: Damage to the host cells serves as the signal in cytopathic effect assays.

For assay [2], the system named is CEM-SS. The assay is described as follows: Cytotoxicity against human CEM-SS cells after 6 days by XTT-based assay. The following applies: 144 h. The format is cell-based. For orientation: Tetrazolium assays rely on reduction of a dye to a coloured formazan, in cell work by metabolically active cells.
In assay [3] the test system is Human immunodeficiency virus 1. The assay is described as follows: Antiviral activity against HIV1 infected in human CEM-SS cells assessed as protection against viral infection after 6 days by XTT-based assay relative to control. In kind it is functional.

On to `COc1ccc2c(c1CC=C(C)C)O[C@H]1c3ccc(O)cc3OC[C@@H]21` [SANDWICENSIN], for which the EC50 in assay [1] is 2 µg/mL (≈ 5.91 µM). The compound also came in with an IC50 in assay [2] of 7 µg/mL (≈ 20.7 µM). Moreover, the Activity in assay [3] was determined as 50%.
With `COc1cc2c(cc1CC=C(C)C)[C@@H]1Oc3cc(O)ccc3[C@@H]1CO2`, in assay [1], the concentration giving a half-maximal response (EC50) was determined as 0.2 µg/mL (≈ 0.591 µM). Besides, the IC50 in assay [2] stood at 3 µg/mL (≈ 8.87 µM). For the same compound, the Activity in assay [3] worked out at 80%.
